Measurements taken from publication PMC7914367, “Dual-ligand supramolecular nanofibers inspired by the renin-angiotensin system for the targeting and synergistic therapy of myocardial infarction” (Theranostics, 2021).
Blank lines part the entries; values can stand above or below the molecule they belong to. Square brackets hold non-standard residues; d marks the D form. Ends that are not written are not given here. Peptide text beside a SMILES is read from it. * marks the point of attachment. NBD = O=[N+]([O-])c1ccc(*)c2nonc12; βAla = NCCC(=O)O

What was measured:
[1] = target: T1, recombinant human MasR (rhMasR) (Homo sapiens, UniProt P04201); assay: Surface plasmon resonance imaging (SPRi) binding; settings: rhMasR immobilized on CM5 chip, analytes 0.001-10 μM in PBS
T1 construct: purchased Abnova H00004142-G01
T1 sequence (P04201 1-325): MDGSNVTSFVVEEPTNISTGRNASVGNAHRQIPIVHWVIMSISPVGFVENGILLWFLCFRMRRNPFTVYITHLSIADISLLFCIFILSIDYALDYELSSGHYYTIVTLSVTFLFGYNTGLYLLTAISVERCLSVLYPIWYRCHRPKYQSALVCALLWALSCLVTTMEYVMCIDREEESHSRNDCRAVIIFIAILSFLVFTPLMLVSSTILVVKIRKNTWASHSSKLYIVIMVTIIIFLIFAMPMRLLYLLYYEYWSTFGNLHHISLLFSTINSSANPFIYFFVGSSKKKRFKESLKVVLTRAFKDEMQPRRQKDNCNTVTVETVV

[2] = TEM of nanofibers (diameter); format: physicochemical; settings: SAA1-7 hydrogel, 1.0 wt% in PBS pH 7.4, heat-cooling
Text: To construct the dual-ligand supramolecular nanofibers, we designed and synthesized a peptide molecule NBD-^DF^DF^DY^DE^DEG-DRVYIHP (SAA1-7, Figure 1A & Figure S1) as a hydrogelator. […] SAA1-7 could self-assemble into a transparent hydrogel in PBS (pH 7.4) at a concentration of 1.0 wt% via a simple heat-cooling process, in which we observed uniform nanofibers with diameters of 7.6 ± 1.8 nm using transmission electron microscopy (TEM) (Figure S2). The drug loading efficiency and the stability of nanocarriers are attributed to the affinity between amphiphilic peptides and hydrophobic molecules. […] We measured the encapsulation efficiency (EE) and drug loading (DL) of TDCNfs. […]
Subsequently, we studied the co-assembly behaviors and the underlying mechanism of TDCNfs. […] We monitored and compared the nanostructures in the process of hydrogelation at different time points by TEM. […]
(§1) DL and EE were calculated using the following equation. […]
dissolved in PBS (5 mL) and th e pH was adjusted to 7.4. […] Next, 500 μL of the sample was removed at each time point and the rel ease of Tel was analyzed, while the remained SAA1-7 in the sample was analyzed using LC-MS […]
(§2) The CMC values were determined by dynamic light scattering (DLS) and the light scattering intensity was recorded for each concentration. […]

[3] = Critical micelle concentration by dynamic light scattering; format: physicochemical; settings: gradient concentrations in MilliQ water
Procedure: The details are given in Supporting Information.
S1.3 Drug Loading and Encapsulation Efficiency
Tel (dissolved in DMSO) was mixed with SAA1-7 (dissolved in PBS) (pH 7.4, 10 mg/mL) at molar ratios of 15%, 30%, 50%, and 70% (n = 3). After preparation, the mixtures were analy zed using LC-MS (LCMS-20AD, Shimadzu) after lyo philization.
as §1
dissolved in PBS (5 mL) and th e pH was adjusted to 7.4. Proteinase K was added at a concentration of 0.138 mg/mL and the reaction m ixtures were incubated at 37 °C for 24 h. Next, 500 μL of the sample was removed at each time point and the rel ease of Tel was analyzed, while the remained SAA1-7 in the sample was analyzed using LC-MS […]
S1.4 Transmission electron microscopy
The SAA1-7 with 50% molar ratio of Tel was incubated at 40 ℃ for 0 min, 30 min, 60 min, and 120 min, respectively. TEM samples in different time points were prepared. […]
were prepared. The sample preparation procedures : 10 µL samples of each were placed on a carbon-coated copper grid and in cubated for 30 seconds to allow the peptide nanostructures to adhere to the substrate, then rinsed twice with ultrapure water. […]
as §2

AT1R = target: T2, AT1R (Rattus norvegicus, UniProt P25095); assay: Fluorescent co-localization with AT1R in NRCMs; format: cell-based; settings: OGD-conditioned NRCMs, 50 μM, 2 h, microscopy
T2 construct: NRCMs under OGD conditions expressed high levels of AT1R (red fluorescence); endogenous in cells; host or cells: primary neonatal rat cardiomyocytes (NRCMs) from Sprague-Dawley rats, normoxia or OGD
T2 sequence (P25095 1-359): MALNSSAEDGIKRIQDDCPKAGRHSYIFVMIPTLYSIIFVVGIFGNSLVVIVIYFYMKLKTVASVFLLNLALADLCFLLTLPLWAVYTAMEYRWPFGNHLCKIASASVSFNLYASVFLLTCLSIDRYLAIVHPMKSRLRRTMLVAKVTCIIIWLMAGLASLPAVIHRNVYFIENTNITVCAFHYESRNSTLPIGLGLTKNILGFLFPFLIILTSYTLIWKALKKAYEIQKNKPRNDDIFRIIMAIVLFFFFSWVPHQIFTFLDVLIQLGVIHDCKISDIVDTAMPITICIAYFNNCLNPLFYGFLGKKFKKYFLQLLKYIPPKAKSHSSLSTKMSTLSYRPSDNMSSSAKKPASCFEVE
Procedure: Next, the cells were blocked by incubating with goat serum for 30 min and incubated with primary antibodies overnight at 4 °C. The primary antibodies used here included anti-AT1R (1:200 dilution), anti-cTNT (1:500 dilution), anti-P65 (1:800 dilution), and anti‐α-SMA (1:400 dilution). The cells were incubated with FITC-labeled Goat Anti-Rabbit IgG (1:200 dilution) or Cy3-labeled Goat Anti-Mouse IgG (1:200 dilution) for 2 h at room temperature. The cells were counterstained with DAPI and imaged using a fluorescence microscope (Leica Dmi8, Germany).
(50 μM), SAA1-7+Tel (50 μM) and NBDAng1-7+Tel (50 μM) for further 2 h. PBS was then used to wash cells for three times and 4% paraformaldehyde was added to fix cells for 20 min at room temperature. After being blocked with goat serum for 30 min, rabbit anti-AT1R primary antibody (1:200 dilution) was added to incubat e wit h NRCMs overnight at 4 ℃. After being washed with PBS for three times, Cy3-labeled Goat Anti-Rabbit IgG (1:200 solut ion) was added and incubated with cells for 2 h at room temperature. Cells were then stained with DAPI. The fluorescence i mages were obtained by the fluorescence microscope (λexc =532 nm for AT1R, λexc = 488 nm for NBD, λexc = 405 nm for DAPI).

NRCMs = assay: TUNEL staining of OGD NRCMs; format: cell-based, rat; settings: 10 μM, 2-3 h, OGD group 26.70%, n = 3
MI mouse model [4] = assay: Masson's trichrome staining, infarct size; format: in vivo, C57BL/6 mice; settings: MI mice, 4 weeks, collagen area/LV area, MI group 36.60%, vehicle 1219.84 μg/kg, n = 5
Procedure: Adult male C57BL/6 mice (20-30 g, 8-10 week) were purchased from the laboratory animal center of Southern Medical University, China. The protocols were approved according to the Zhujiang Hospital of Southern Medical University animal care and use committee guidelines, which conform to the guide for the care and use of laboratory animals published by the US National Institutes of Health (8th edition, 2011). […] Next, 100 µL of different drugs were administered intravenously through tail vein injection every 2 days for 3 weeks, while the mice in the Sham and MI groups were treated with an equal volume of PBS.
The mice were sacrificed at 4 weeks after the induction of MI, and hearts and major organs were harvested and fixed in 4% paraformaldehyde overnight and embedded in paraffin. The hearts were sectioned to 5 µm along the short axis transversely across the infarct zone. The major organs were sectioned to 5 µm along the short axis. Following deparaffinization and dehydration, the samples underwent H&E and Masson's trichrome staining. The sections were observed under a microscope to evaluate the therapeutic effect and safety of the drugs. The collagen and LV areas were measured using the Image-Pro Plus software (version 6.0; Media Cybernetics, Silver Spring, MD, USA). Infarct size (%) was calculated as the ratio of the collagen area to the LV area.

MI mouse model [5] = assay: In vivo mechanism: caspase-3 IHC, α-SMA immunofluorescence, type I collagen, TGF-β1, serum cytokines; set-up: species or system C57BL/6 mice; settings: MI mice, 4 weeks post-treatment, immunofluorescence, n = 5
Procedure: Frozen sections were prepared in vivo, as described previously. For drugs distribution, near-infrared laser imager (GE Amersham Typhoon, Sweden) was used to capture full cross section of hearts. For co-localization experiments, the mice hearts were dissected 24 h post-injection of drugs. Anti-AT1R primary antibody (1:200 dilution) was used as the primary antibody. For fibrosis investigation, the frozen sections were incubated with primary antibodies against α-SMA (1:400 dilution). The staining signals were visualized using FITC-labeled Goat Anti-Rabbit IgG (1:200 dilution) or Cy3-labeled Goat Anti-Rabbit IgG (1:200 dilution). The sections were counterstained with DAPI and examined under a laser confocal scanning microscope (Leica TCS SP8, Germany).
The heart tissues were fixed in 4% paraformaldehyde, dehydrated in ethanol, cleared in xylene, and embedded in paraffin. The samples were then cut into 6 μm sections on a microtome and deparaffinized. The sections were blocked by incubating with 1% BSA at room temperature for 30 min and then incubated overnight with anti-cleaved caspase-3 (1:700 dilution), anti-AT1R (1:100 dilution), anti-Collagen I (1:200 dilution) at 4 °C. Next, the sections were washed and incubated with secondary antibodies (1:500 dilution) at room temperature. The tissue sections were incubated with diaminobenzidine and counterstained with hematoxylin, dehydrated, and mounted before viewing under a microscope.
The serum and CM were collected at the indicated time points from the different groups of mice. The levels of TNF-α, IL-6, ALT, Cre, and TGF-β1 were measured using ELISA kits according to the manufacturer's protocol. The absorbance was measured at 450 nm using a microplate reader.

[6] = target: T3, recombinant human MasR (Recombinant Human MAS1 protein) (human) (UniProt P04201); assay: SPR; SPR imaging (SPRi, PlexArray HT); rhMasR immobilised on a CM5 sensor chip; Ang1-7, SAA1-7 and TDCNfs diluted in PBS at 0.001 to 10 μM
T3 sequence (P04201 whole entry, looked up): T1 sequence (P04201 1-325)

Molecule: CC[C@H](C)[C@H](NC(=O)[C@H](Cc1ccc(O)cc1)NC(=O)[C@@H](NC(=O)[C@H](CCCNC(=N)N)NC(=O)[C@@H](N)CC(=O)O)C(C)C)C(=O)N[C@@H](Cc1c[nH]cn1)C(=O)N1CCC[C@H]1C(=O)O [Ang1-7, DRVYIHP]
Kd [1]: 0.0103 µM

Molecule: NBD-DFDFDYDEDEG-YRVIPHD [vehicle]
TUNEL-positive NRCMs (NRCMs): 23.5% | infarct size (MI mouse model [4]): 32.92% | α-SMA expression in the non-infarcted area (MI mouse model [5]): inhibited to a certain extent

Molecule: NBDAng1-7: Ang1-7 endowed with fluorescence by NBD labeling
co-localization with AT1R (AT1R): slightly overlapped signal

The remaining lines, values ahead:

nanofiber diameter (TEM) [2]: 7.6 ± 1.8 nm | critical micelle concentration (CMC) [3]: 21.95 µM | Kd [1]: 0.0126 µM | co-localization with AT1R (AT1R): slightly overlapped signal
Molecule: CC[C@H](C)[C@H](NC(=O)[C@H](Cc1ccc(O)cc1)NC(=O)[C@@H](NC(=O)[C@H](CCCNC(=N)N)NC(=O)[C@H](CC(=O)O)NC(=O)CNC(=O)[C@@H](CCC(=O)O)NC(=O)[C@@H](CCC(=O)O)NC(=O)[C@@H](Cc1ccc(O)cc1)NC(=O)[C@@H](Cc1ccccc1)NC(=O)[C@@H](Cc1ccccc1)NC(=O)CCNc1ccc([N+](=O)[O-])c2nonc12)C(C)C)C(=O)N[C@@H](Cc1c[nH]cn1)C(=O)N1CCC[C@H]1C(=O)O [SAA1-7, NBD-^DF^DF^DY^DE^DEG-DRVYIHP] ({NBD-βAla}-[dF][dF][dY][dE][dE]GDRVYIHP-OH)

Kd [6]: 0.0103 µM | binding value (RU) [6]: 65.1 RU
Molecule: DRVYIHP [angiotensin 1-7]

Kd [6]: 0.0126 µM | binding value (RU) [6]: 62.3 RU
Molecule: {NBD}-[dF][dF][dY][dE][dE]GDRVYIHP [self-assembly angiotensin 1-7 (NBD-DF-DF-DY-DE-DE-G-DRVYIHP)]

Kd [6]: 0.0165 µM | binding value (RU) [6]: 58.2 RU
Molecule: {NBD}-[dF][dF][dY][dE][dE]GDRVYIHP (also: co-assembly nanofibers doped with telmisartan) [telmisartan-doped co-assembly nanofibers]
